Test results reported in US20240024273A1, “TOPICAL ADMINISTRATION OF 2-(DIETHYLAMINO)ETHYL 2-(4-ISOBUTYLPHENYL)PROPRIONATE FOR TREATMENT OF DISEASES” (TECHFIELDS PHARMA CO., LTD., priority 2020, published 2024).

Test system: Subjects with Osteoarthritis of the Knee
Experiment: Second Phase 2 study: safety (treatment-emergent adverse events)
Format: in vivo, human
Details: for Adverse events of special interest, Events / Adverse events of special interest, Subjects, number (%) / Local skin reactions around the treated knees, Events / Local skin reactions around the treated knees, Subjects, number (%) / Requires hospitalization, Events / Requires hospitalization, Subjects, number (%) / Results in death, number (%) / Serious treatment-emergent adverse events, Events / Serious treatment-emergent adverse events, Subjects, number (%) / Severe treatment-emergent adverse events, Events / Severe treatment-emergent adverse events, Subjects, number (%) / To be discontinued from the study due to adverse events, Events / To be discontinued from the study due to adverse events, Subjects, number (%) / To be discontinued from the treatment temporarily due to adverse events, Events / To be discontinued from the treatment temporarily due to adverse events, Subjects, number (%) / Treatment-emergent adverse events, Events / Treatment-emergent adverse events, Subjects, number (%): All Causalities
Source text: Safety assessments will be performed at each visit and will include assessment of AEs, vital signs (blood pressure, pulse rate, and oral temperature), clinical laboratories, physical examination, skin irritation, and electrocardiograms (ECGs) as indicated in the study flow chart, Table 47.
Safety assessments will include AEs, vital signs (blood pressures, pulse rate, and oral temperature), clinical laboratories, physical examination, skin irritation, and ECGs at various time points during the study as indicated in the study flow chart.
Adverse events of interest include: local skin reactions around the treated knee(s), upper stomach pain, GI bleeding, serious cardiovascular side effects (e.g., thrombotic events, myocardial infarction, or stroke), jaundice, elevated liver function tests, and nausea.
Safety analyses will be conducted on the SAS. Safety parameters will be listed and summarized using standard descriptive statistics, as appropriate. No formal statistical analyses are planned.

[1] = moderate adverse events, 4.375 mg/knee, BID, N = 71

## CCN(CC)CCOC(=O)C(C)c1ccc(CC(C)C)cc1 (centres unmarked) [2-(diethylamino)ethyl 2-(4-isobutylphenyl)propionate]
17.5 mg/knee, BID, N = 70
  Toothache: percentage of subjects with adverse events: 1.4%
  Toothache: subjects with adverse events: 1
  Upper Respiratory Tract Infection: number of adverse events: 5
  Upper Respiratory Tract Infection: subjects with adverse events, number (percentage): 5(7.1%)
  Urinary Tract Infection: number of adverse events: 9
  Urinary Tract Infection: subjects with adverse events, number (percentage): 8(11.4%)
4.375 mg/knee BID, n = 71
  Adverse events of special interest, Events: 16
  Adverse events of special interest, Subjects, number (%): 11 (15.5%)
  Local skin reactions around the treated knees, Events: 1
  Local skin reactions around the treated knees, Subjects, number (%): 1 (1.4%)
  Requires hospitalization, Events: 0
  Requires hospitalization, Subjects, number (%): 0
  Results in death, number (%): 1 (1.4%)
  Serious treatment-emergent adverse events, Events: 1
  Serious treatment-emergent adverse events, Subjects, number (%): 1 (1.4)
  Severe treatment-emergent adverse events, Events: 1
  Severe treatment-emergent adverse events, Subjects, number (%): 1 (1.4%)
  To be discontinued from the study due to adverse events, Events: 1
  To be discontinued from the study due to adverse events, Subjects, number (%): 1 (1.4%)
  To be discontinued from the treatment temporarily due to adverse events, Events: 1
  To be discontinued from the treatment temporarily due to adverse events, Subjects, number (%): 1 (1.4%)
  Treatment-emergent adverse events, Events: 68
  Treatment-emergent adverse events, Subjects, number (%): 41 (57.7%)
8.75 mg/knee BID, n = 70
  Adverse events of special interest, Events: 12
  Adverse events of special interest, Subjects, number (%): 10 (14.3)
  Local skin reactions around the treated knees, Events: 1
  Local skin reactions around the treated knees, Subjects, number (%): 1 (1.4%)
  Requires hospitalization, Events: 1
  Requires hospitalization, Subjects, number (%): 1 (1.4%)
  Results in death, number (%): 0
  Serious treatment-emergent adverse events, Events: 1
  Serious treatment-emergent adverse events, Subjects, number (%): 1 (1.4)
  Severe treatment-emergent adverse events, Events: 1
  Severe treatment-emergent adverse events, Subjects, number (%): 1 (1.4%)
  To be discontinued from the study due to adverse events, Events: 0
  To be discontinued from the study due to adverse events, Subjects, number (%): 0
  To be discontinued from the treatment temporarily due to adverse events, Events: 1
  To be discontinued from the treatment temporarily due to adverse events, Subjects, number (%): 1 (1.4%)
  Treatment-emergent adverse events, Events: 71
  Treatment-emergent adverse events, Subjects, number (%): 39 (55.7%)
17.5 mg/knee BID, n = 70
  Adverse events of special interest, Events: 14
  Adverse events of special interest, Subjects, number (%): 11 (15.7)
  Local skin reactions around the treated knees, Events: 5
  Local skin reactions around the treated knees, Subjects, number (%): 4 (5.7%)
  Requires hospitalization, Events: 0
  Requires hospitalization, Subjects, number (%): 0
  Results in death, number (%): 0
  Serious treatment-emergent adverse events, Events: 0
  Serious treatment-emergent adverse events, Subjects, number (%): 0
  Severe treatment-emergent adverse events, Events: 0
  Severe treatment-emergent adverse events, Subjects, number (%): 0
  To be discontinued from the study due to adverse events, Events: 1
  To be discontinued from the study due to adverse events, Subjects, number (%): 1 (1.4%)
  To be discontinued from the treatment temporarily due to adverse events, Events: 0
  To be discontinued from the treatment temporarily due to adverse events, Subjects, number (%): 0
  Treatment-emergent adverse events, Events: 52
  Treatment-emergent adverse events, Subjects, number (%): 30 (42.9%)
All three doses (4.375, 8.75, 17.5 mg/knee BID)
  safety and tolerability: appeared to be safe and were generally well tolerated
In vivo
  skin irritation incidences, total (all mild): 9
In vivo, po
  overall safety vs oral ibuprofen: safer than oral ibuprofen
[1]
  Gastroenteritis: number of adverse events: 1
  Gastroenteritis: percentage of subjects with adverse events: 1.4%
